# Values quoted from earlier work in patent publication US4177199A, “Silver salts of phosphanilic acid” (Bristol-Myers Company, priority 1978, dated 1979).
# Assays:
# [1] = laboratory animals
# [2] = laboratory animals; remark: listed apart in the source
# [3] = system: tuberculosis
# [4] = system: experimental tuberculosis
# [5] = system: Histoplasma capsulatum; settings: mouse, in vivo, iv
# [6] = system: a variety of bacterial species
# [7] = system: S. typhosa; settings: mice infected with S. typhosa
# [8] = system: Ps. fluorescens; settings: mice infected with Ps. fluorescens
# [9] = system: Plasmodium berghei; settings: mice infected with Plasmodium berghei
# [10] = by admixture or salt formation
smiles,measurement,setting,value
Nc1ccc(P(=O)(O)O)cc1 [phosphanilic acid],absorption,[1],poor
same,toxicity,[2],low
same,tubercularstatic activity in vitro,[3],good
same,effect in vivo against experimental tuberculosis,[4],no effect
same,protective effect against Histoplasma capsulatum infection,[5],some protective effect
same,in vitro activity among compounds tested,[6]; aromatic phosphonic and phosphinic acids,generally the most active of the compounds tested
same,activity compared with sulfathiazole,[6]; molar basis,approached that of sulfathiazole
same,efficacy in vivo in infected mice,[7],effective
same,efficacy in vivo in infected mice,[8],effective
same,efficacy in vivo in infected mice,[9],effective
same,potentiation of various tetracycline antibiotics,[10],potentiation
